Assay results from publication PMC6901909, “Synergy Pattern of Short Cationic Antimicrobial Peptides Against Multidrug-Resistant Pseudomonas aeruginosa” (Frontiers in Microbiology, 2019).
≈ marks a conversion by molar mass, not a printed value. Where two headings read alike, the source gives them in different places. Peptide text beside a SMILES is read from it.

Columns and labels:
MDR P. aeruginosa PA 923 = experiment: microbe, parasite or virus in culture; assay type: cell-based, Pseudomonas aeruginosa; details: Pseudomonas aeruginosa; conventional antibiotics; microdilution, Mueller-Hinton broth, 2–5 10^5 CFU/ml, 18 h at 37°C, read visually; at least three repeats (n = 3)
Outline: (§1)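 Clinical and municipal waste-water MDR isolates were tested by broth microdilution in Mueller-Hinton broth with twofold serial dilutions at 2–5 10^5 CFU/ml. Plates were incubated 18 h at 37°C in polypropylene plates. MIC was read visually.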

MDR P. aeruginosa PA 915 = experiment: microbe, parasite or virus in culture; assay type: cell-based, Pseudomonas aeruginosa; details: Pseudomonas aeruginosa; conventional antibiotics; microdilution, Mueller-Hinton broth, 2–5 10^5 CFU/ml, 18 h at 37°C, read visually; at least three repeats (n = 3)
Outline: as §1

MDR P. aeruginosa PA 919 = experiment: microbe, parasite or virus in culture; assay type: cell-based, Pseudomonas aeruginosa; details: for MIC: Pseudomonas aeruginosa, conventional antibiotics, 2–5 10^5 CFU/ml, at least three repeats (n = 3)
Outline: as §1

MDR P. aeruginosa PA253 = experiment: microbe, parasite or virus in culture; assay type: cell-based, Pseudomonas aeruginosa; details: for MIC: Pseudomonas aeruginosa, conventional antibiotics, 2–5 10^5 CFU/ml, at least three repeats (n = 3)
Outline: as §1

P. aeruginosa PA01-wt = experiment: microbe, parasite or virus in culture; assay type: cell-based, Pseudomonas aeruginosa; details: for MIC: Pseudomonas aeruginosa, PA01WT, conventional antibiotics, 2–5 10^5 CFU/ml, at least three repeats (n = 3)
MDR P. aeruginosa PA 927 = experiment: microbe, parasite or virus in culture; assay type: cell-based, Pseudomonas aeruginosa; details: Pseudomonas aeruginosa; conventional antibiotics; microdilution, Mueller-Hinton broth, 2–5 10^5 CFU/ml, 18 h at 37°C, read visually; at least three repeats (n = 3)
Outline: as §1

MDR P. aeruginosa PA 910 = experiment: microbe, parasite or virus in culture; assay type: cell-based, Pseudomonas aeruginosa; details: for MIC: Pseudomonas aeruginosa; for MIC against PA910 in μM (peptides, Table 4): peptide alone
Outline: as §1

[1] = test system: MDR isolate of P. aeruginosa (PA 910); details: checkerboard, MHb, for the Indopt versions 1/8 MHb, 2–5 × 10^5 CFU/ml, 37°C, 18 h, visual, determined once (n = 1); for FIC, combination with AMI: peptide + amikacin; for FIC, combination with CEF: peptide + cefepime; for FIC, combination with CET: peptide + ceftazidime; for FIC, combination with CIP: peptide + ciprofloxacin; for FIC, combination with ERY: peptide + erythromycin; for FIC, combination with GEN: peptide + gentamycin; for FIC, combination with IMI: peptide + imipenem; for FIC, combination with KAN: peptide + kanamycin; for FIC, combination with MER: peptide + meropenem; for FIC, combination with PIP: peptide + piperacillin; for FIC, combination with PMB: peptide + polymyxin B; for FIC, combination with TET: peptide + tetracycline; for FIC, combination with TOB: peptide + tobramycin
Description: The checkerboard assay was used to determine the fractional inhibitory concentrations (FICs), following the protocol described in Koneman’s Color Atlas and Textbook of Diagnostic Microbiology ([Winn et al., 2006]). Briefly, combinations of peptides and antibiotics were prepared in 96-well plates (polypropylene, Corning) in a twofold dilution series. After the addition of a log-phase bacterial inoculum of 2–5 × 10^5 CFU/ml, plates were incubated at 37°C for 18 h. The FICs were determined by visual inspection and the effects of the combinations were determined using the FICs. The FIC was computed by adding two partial FIC values, FICA—the MIC of drug A, tested in combination with drug B divided by the MIC of drug A, tested alone and FICB—the MIC of drug B, tested in combination with drug A divided by the MIC of drug B, tested alone [FIC = FICA + FICB = (MICAB/MICA) + (MICBA/MICB), where MICA and MICB are the MICs of drugs A and B alone, respectively, and MICAB and MICBA are the MIC concentrations of the drugs in combination]. Here we use the European Committee for Antimicrobial Susceptibility Testing (EUCAST) definition, which is very similar to the definition provided by [Odds, 2003], except Odds define additive effects when FIC values are between 0.5 and 1 ([European Committee for Antimicrobial Susceptibility Testing [EUCAST] of the European Society of Clinical Microbiology and Infectious Diseases [ESCMID], 2000]; [Odds, 2003]). The combination of peptide (drug A) and antibiotics (drug B) was defined as synergistic if the FIC was ≤ 0.5, indifferent if the FIC was > 0.5 but ≤ 4.0 and antagonistic if the FIC was > 4.0.

[2] = microdilution, Mueller-Hinton broth, 18 h at 37°C, read visually
[3] = 18 h, antibiotic alone, as listed in the FIC table, read-out: MIC against PA910 in μM (antibiotics, head of Table 4)
[4] = conventional antibiotics, microdilution, Mueller-Hinton broth, 2–5 10^5 CFU/ml, 18 h at 37°C, read visually, at least three repeats (n = 3), read-out: MIC PA 910
[5] = four classes defined from the MIC values, 1 strong to 4 weak
[6] = short AMPs, microdilution, Mueller-Hinton broth, 18 h at 37°C, read visually, triplicate (n = 3)

| SMILES | MIC (MDR P. aeruginosa PA 923) [µM] | MIC (MDR P. aeruginosa PA 915) [µM] | MIC (MDR P. aeruginosa PA 919; [2]) [µM] | MIC (MDR P. aeruginosa PA253; [2]) [µM] | MIC (P. aeruginosa PA01-wt; [2]) [µM] | MIC (MDR P. aeruginosa PA 927) [µM] | MIC (MDR P. aeruginosa PA 910; [3]) [µM] | MIC (MDR P. aeruginosa PA 910; [4]) [µM] | FIC, combination with AMI [1] | FIC, combination with CEF [1] | FIC, combination with CET [1] | FIC, combination with CIP [1] | FIC, combination with ERY [1] | FIC, combination with GEN [1] | FIC, combination with IMI [1] | FIC, combination with KAN [1] | FIC, combination with MER [1] | FIC, combination with PIP [1] | FIC, combination with PMB [1] | FIC, combination with TET [1] | further results |
| --- | --- | --- | --- | --- | --- | --- | --- | --- | --- | --- | --- | --- | --- | --- | --- | --- | --- | --- | --- | --- | --- |
| NCC[C@H](O)C(=O)N[C@@H]1C[C@H](N)[C@@H](O[C@H]2O[C@H](CN)[C@@H](O)[C@H](O)[C@H]2O)[C@H](O)[C@H]1O[C@H]1O[C@H](CO)[C@@H](O)[C@H](N)[C@H]1O [Amikacin] | 4 (≈ 2.34 µg/mL) | 4 (≈ 2.34 µg/mL) | 32 (≈ 18.7 µg/mL) | 8 to 16 (≈ 4.68 to 9.37 µg/mL) | 1 (≈ 0.586 µg/mL) | 4 (≈ 2.34 µg/mL) | 2 to 4 | 2 to 4 (≈ 1.17 to 2.34 µg/mL) |  |  |  |  |  |  |  |  |  |  |  |  |  |
| CC[C@H](C)[C@H](NC(=O)[C@H](CCCCN)NC(=O)[C@H](CCC(=O)O)NC(=O)[C@H](CCCCN)NC(=O)[C@H](CO)NC(=O)[C@H](CCCCN)NC(=O)[C@H](CCCNC(=N)N)NC(=O)[C@H](Cc1ccccc1)NC(=O)[C@H](Cc1ccccc1)NC(=O)[C@H](CC(=O)O)NC(=O)CNC(=O)[C@H](CC(C)C)NC(=O)[C@@H](N)CC(C)C)C(=O)NCC(=O)N[C@@H](CCCCN)C(=O)N[C@@H](CCC(=O)O)C(=O)N[C@@H](Cc1ccccc1)C(=O)N[C@@H](CCCCN)C(=O)N[C@@H](CCCNC(=N)N)C(=O)N[C@H](C(=O)N[C@H](C(=O)N[C@@H](CCC(N)=O)C(=O)N[C@@H](CCCNC(=N)N)C(=O)N[C@H](C(=O)N[C@@H](CCCCN)C(=O)N[C@@H](CC(=O)O)C(=O)N[C@@H](Cc1ccccc1)C(=O)N[C@@H](CC(C)C)C(=O)N[C@@H](CCCNC(=N)N)C(=O)N[C@@H](CC(N)=O)C(=O)N[C@@H](CC(C)C)C(=O)N[C@H](C(=O)N1CCC[C@H]1C(=O)N[C@@H](CCCNC(=N)N)C(=O)N[C@H](C(=O)N[C@@H](CCC(=O)O)C(=O)N[C@@H](CO)C(=O)O)[C@@H](C)O)C(C)C)[C@@H](C)CC)C(C)C)[C@@H](C)CC [LL37] |  |  |  |  |  |  |  |  | 2 | 2 | 0.75 | 0.51 | 0.51 | 2 | 1 | 1 | 0.51 | 2 | 0.63 | 0.5 | FIC, combination with TOB [1]: 2; activity class by MIC (number in brackets), PA919 (MDR P. aeruginosa PA 919; [5]): 3 (class 3 includes peptides with MIC values between 16 and 32 μM); MIC against MDR isolates of PA, PA919 (MDR P. aeruginosa PA 919; [6]): 16 µM; activity class by MIC (number in brackets), PA253 (MDR P. aeruginosa PA253; [5]): 4 (the least active class includes peptides with MIC values larger than 32 μM); MIC against MDR isolates of PA, PA253 (MDR P. aeruginosa PA253; [6]): 64 µM; activity class by MIC (number in brackets), PA01 wt (P. aeruginosa PA01-wt; [5]): 3 (class 3 includes peptides with MIC values between 16 and 32 μM); MIC against PA01 wt (P. aeruginosa PA01-wt; [6]): 16 µM (≈ 71.9 µg/mL); activity class by MIC (number in brackets), PA910 (MDR P. aeruginosa PA 910; [5]): 4 (the least active class includes peptides with MIC values larger than 32 μM); MIC against PA910 in μM (peptides, Table 4) (MDR P. aeruginosa PA 910; as listed in the FIC table): 64 µM; MIC against MDR isolates of PA, PA910 (MDR P. aeruginosa PA 910; [6]): 64 µM |
| CC[C@H](C)[C@H](NC(=O)[C@H](CCCNC(=N)N)NC(=O)[C@H](Cc1c[nH]c2ccccc12)NC(=O)[C@H](CC(C)C)NC(=O)[C@@H](N)CCCNC(=N)N)C(=O)N[C@H](C(=O)N[C@H](C(=O)N[C@H](C(=O)N[C@@H](CCCNC(=N)N)C(=O)N[C@H](C(=O)N[C@@H](CCCCN)C(=O)N[C@@H](CCCNC(=N)N)C(N)=O)C(C)C)[C@@H](C)CC)C(C)C)C(C)C [Sub 7] (H-RLWRIVVIRVKR-NH2) |  |  |  |  |  |  |  |  | 0.53 | 0.56 | 0.56 | 0.75 | 0.5 | 0.75 | 2 | 0.63 | 0.51 | 0.53 | 1 | 0.5 | FIC, combination with TOB [1]: 2; MIC against MDR isolates of PA, PA919 (MDR P. aeruginosa PA 919; MDR PA 919, 18 h): 32 µM; MIC against MDR isolates of PA, PA253 (MDR P. aeruginosa PA253; MDR PA253, 18 h): 16 µM; MIC against PA01 wt (P. aeruginosa PA01-wt; -wt, 18 h): 16 µM (≈ 25.5 µg/mL); MIC against PA910 in μM (peptides, Table 4) (MDR P. aeruginosa PA 910; as listed in the FIC table): 32 µM |

The next lines start with results.

| MIC (MDR P. aeruginosa PA 923) [µM] | MIC (MDR P. aeruginosa PA 915) [µM] | MIC (MDR P. aeruginosa PA 919; [2]) [µM] | MIC (MDR P. aeruginosa PA253; [2]) [µM] | MIC (P. aeruginosa PA01-wt; [2]) [µM] | MIC (MDR P. aeruginosa PA 927) [µM] | MIC (MDR P. aeruginosa PA 910; [3]) [µM] | MIC (MDR P. aeruginosa PA 910; [4]) [µM] | SMILES | FIC, combination with AMI [1] | FIC, combination with CEF [1] | FIC, combination with CET [1] | FIC, combination with CIP [1] | FIC, combination with ERY [1] | FIC, combination with GEN [1] | FIC, combination with IMI [1] | FIC, combination with KAN [1] | FIC, combination with MER [1] | FIC, combination with PIP [1] | FIC, combination with PMB [1] | FIC, combination with TET [1] | further results |
| --- | --- | --- | --- | --- | --- | --- | --- | --- | --- | --- | --- | --- | --- | --- | --- | --- | --- | --- | --- | --- | --- |
| 64 (≈ 30.8 µg/mL) | 32 (≈ 15.4 µg/mL) | 16 (≈ 7.69 µg/mL) | > 128 | 8 (≈ 3.84 µg/mL) | 128 (≈ 61.5 µg/mL) | 128 | 64 (≈ 30.8 µg/mL) | CO/N=C(\C(=O)N[C@@H]1C(=O)N2C(C(=O)[O-])=C(C[N+]3(C)CCCC3)CS[C@H]12)c1csc(N)n1 [Cefepime] |  |  |  |  |  |  |  |  |  |  |  |  |  |
| 128 (≈ 70 µg/mL) | 4 (≈ 2.19 µg/mL) | 8 (≈ 4.37 µg/mL) | > 128 | 4 (≈ 2.19 µg/mL) | > 128 | 64 | 128 (≈ 70 µg/mL) | CC(C)(O/N=C(\C(=O)N[C@@H]1C(=O)N2C(C(=O)[O-])=C(C[n+]3ccccc3)CS[C@H]12)c1csc(N)n1)C(=O)O [Ceftazidime] |  |  |  |  |  |  |  |  |  |  |  |  |  |
| 256 (≈ 188 µg/mL) | 64 (≈ 47 µg/mL) | 128 (≈ 93.9 µg/mL) | 64 (≈ 47 µg/mL) | 128 (≈ 93.9 µg/mL) | 16 (≈ 11.7 µg/mL) | 128 | 128 (≈ 93.9 µg/mL) | CC[C@H]1OC(=O)[C@H](C)[C@@H](O[C@H]2C[C@@](C)(OC)[C@@H](O)[C@H](C)O2)[C@H](C)[C@@H](O[C@@H]2O[C@H](C)C[C@H](N(C)C)[C@H]2O)[C@](C)(O)C[C@@H](C)C(=O)[C@H](C)[C@@H](O)[C@]1(C)O [Erythromycin] |  |  |  |  |  |  |  |  |  |  |  |  |  |
